test system: HCV genotype 1b replicon in Huh 7 cells; assay: HCV replicon assay (1b_Huh-Luc/Neo-ET cell line, luciferase readout); type: cell-based; conditions: Hepatitis C virus; Table 1; genotype 1b replicon, Huh 7 cells, 72 h, luciferase; read-out: Inhibition of HCV genotype 1b
Outline: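 Huh 7 cells carrying a bicistronic genotype 1b luciferase replicon were treated with compound in triplicate the day after plating and incubated 72 h. Luciferase activity expressed as % of untreated control; EC50 from a four-parameter logistic fit, repeated several times.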

COC(=O)N[C@H](C(=O)N1CCC[C@H]1c1ncc(-c2cnc3cc(-c4ccc5nc([C@@H]6CCCN6C(=O)[C@@H](NC(=O)OC)C6CCOCC6)[nH]c5c4)ccc3c2)[nH]1)C(C)C [compound 192] and COC(=O)N[C@H](C(=O)N1CCC[C@H]1c1nc2ccc(-c3ccc4cc(-c5cnc([C@@H]6CCCN6C(=O)[C@@H](NC(=O)OC)C6CCOCC6)[nH]5)ccc4n3)cc2[nH]1)C(C)C [compound 194] cannot be ordered by EC50: under 1 nM for the first, under 1 nM for the second.

COC(=O)N[C@H](C(=O)N1CCC[C@H]1c1ncc(-c2ccc3nc(-c4ccc5nc([C@@H]6CCCN6C(=O)[C@@H](NC(=O)OC)C(C)C)[nH]c5c4)ccc3c2)[nH]1)C(C)C [compound 193] and COC(=O)N[C@H](C(=O)N1CCC[C@H]1c1ncc(-c2ccc3cc(-c4ccc5nc([C@@H]6CCCN6C(=O)[C@@H](NC(=O)OC)C(C)C)[nH]c5c4)ncc3c2)[nH]1)C(C)C [compound 204] cannot be ordered by EC50: under 1 nM for the first, under 1 nM for the second.

COC(=O)N[C@H](C(=O)N1CCC[C@H]1c1nc2ccc(-c3ccc4cc(-c5cnc([C@@H]6CCCN6C(=O)[C@H](NC(=O)OC)c6ccccc6)[nH]5)cnc4c3)cc2[nH]1)C(C)C [compound 195] and COC(=O)N[C@H](C(=O)N1CCC[C@H]1c1nc2ccc(-c3ccc4cc(-c5cnc([C@@H]6CCCN6C(=O)[C@H](NC(=O)OC)c6ccccc6)[nH]5)ccc4n3)cc2[nH]1)C(C)C [compound 196] cannot be ordered by EC50: under 1 nM for the first, under 1 nM for the second.

COC(=O)N[C@H](C(=O)N1CCC[C@H]1c1ncc(-c2ccc3nc(-c4ccc5nc([C@@H]6CCCN6C(=O)[C@H](NC(=O)OC)c6ccccc6)[nH]c5c4)ccc3c2)[nH]1)C(C)C [compound 197] and COC(=O)N[C@H](C(=O)N1CCC[C@H]1c1ncc(-c2ccc3cc(-c4ccc5nc([C@@H]6CCCN6C(=O)[C@H](NC(=O)OC)c6ccccc6)[nH]c5n4)ccc3c2)[nH]1)C(C)C [compound 199] cannot be ordered by EC50: under 1 nM for the first, under 1 nM for the second.

COC(=O)N[C@H](C(=O)N1CCC[C@H]1c1ncc(-c2ccc3cc(-c4ccc5nc([C@@H]6CCCN6C(=O)[C@@H](NC(=O)OC)C(C)C)[nH]c5n4)ccc3c2)[nH]1)C(C)C [compound 198] and COC(=O)N[C@H](C(=O)N1CCC[C@H]1c1nc2ccc(-c3ccc4cc(-c5cnc([C@@H]6CCCN6C(=O)[C@H](NC(=O)OC)c6ccccc6)[nH]5)ccc4c3)nc2[nH]1)C(C)C [compound 200] cannot be ordered by EC50: under 1 nM for the first, under 1 nM for the second.

COC(=O)N[C@H](C(=O)N1CCC[C@H]1c1nc2ccc(-c3ccc4cc(-c5cnc([C@@H]6CCCN6C(=O)[C@@H](NC(=O)OC)C6CCOCC6)[nH]5)ccc4c3)nc2[nH]1)C(C)C [compound 201] and COC(=O)N[C@H](C(=O)N1CCC[C@H]1c1ncc(-c2ccc3cc(-c4ccc5nc([C@@H]6CCCN6C(=O)[C@@H](NC(=O)OC)C6CCOCC6)[nH]c5n4)ccc3c2)[nH]1)C(C)C [compound 202] cannot be ordered by EC50: under 1 nM for the first, under 1 nM for the second.

First: COC(=O)N[C@H](C(=O)N1CCC[C@H]1c1ncc(-c2ccc3cc(-c4ccc5nc([C@@H]6CCCN6C(=O)[C@@H](NC(=O)OC)C6CCOCC6)[nH]c5c4)ccc3c2)[nH]1)C1CCOCC1 [compound 203]
Second: COC(=O)N[C@H](C(=O)N1CCC[C@H]1c1ncc(-c2ccc3nc(-c4ccc5nc([C@@H]6CCCN6C(=O)[C@@H](NC(=O)OC)C6CCOCC6)[nH]c5c4)ccc3c2)[nH]1)C1CCOCC1 [compound 206]
The EC50 of the first is lower: under 1 nM for the first, 1 to 9.9 nM for the second. The first is the more potent here.

COC(=O)N[C@H](C(=O)N1CCC[C@H]1c1ncc(-c2ccc3cc(-c4ccc5nc([C@@H]6CCCN6C(=O)[C@@H](NC(=O)OC)C6CCOCC6)[nH]c5n4)ccc3c2)[nH]1)C1CCOCC1 [compound 205] and COC(=O)N[C@H](C(=O)N1CCC[C@H]1c1ncc(-c2cccc3c(-c4ccc5nc([C@@H]6CCCN6C(=O)[C@@H](NC(=O)OC)C(C)C)[nH]c5c4)cccc23)[nH]1)C(C)C [compound 207] cannot be ordered by EC50: under 1 nM for the first, under 1 nM for the second.

COC(=O)N[C@H](C(=O)N1CCC[C@H]1c1nc2ccc(-c3cccc4c(-c5cnc([C@@H]6CCCN6C(=O)[C@H](NC(=O)OC)c6ccccc6)[nH]5)cccc34)cc2[nH]1)C(C)C [compound 208] gave an EC50 of under 1 nM.

— patent US8877707B2, “Inhibitors of HCV NS5A” (Presidio Pharmaceuticals, Inc., priority 2010, dated 2014)
